Legend:
[1] = tested on: NF-κB p100/p52; test: Phospho explorer antibody microarray of LPS-treated RAW 264.7 cells: NF-κB p100/p52; assay type: cell-based; conditions: 200 μM peptide 1 hour then LPS 1 μg/mL 30 minutes, compared to cells treated with only LPS
Procedure: (§1) RAW 264.7 cells were starved in 0.5% FBS for 2 hours and treated with 200 μM of the peptide of SEQ ID NO: 1 for 1 hour, and then inflammation was induced at 37° C. for 30 minutes with LPS (1 μg/mL). Cell lysates of untreated cells (NT), cells treated with LPS, and cells treated with SEQ ID NO: 1 and LPS were applied to a Phospho explorer antibody microarray from Full Moon Biosystems. The phospho microarray is capable of recognizing 1318 antibodies related to 30 signaling systems. A standard-size coated glass microscope slide was coated with each antibody. =It was scanned with a GenePix 4100A scanner (Axon Instrument, Foster City, CA, USA). Data were analyzed with Genowiz 4.0™ (Ocimum Biosolutions, Hyderabad, India). The phosphorylation ratio was calculated as follows.
(§2) Formula for calculating phosphorylation ratio in each antibody: Phosphorylation ratio=(phosphorylation value of experimental group/non-phosphorylation value of experimental group)/(phosphorylation value of control group/non-phosphorylation value of control group)

[2] = tested on: HDAC5; test: Phospho explorer antibody microarray of LPS-treated RAW 264.7 cells: HDAC5; assay type: cell-based; conditions: 200 μM peptide 1 hour then LPS 1 μg/mL 30 minutes, compared to cells treated with only LPS
Procedure: as §1, §2

[3] = tested on: NF-κB p105/p50; test: Phospho explorer antibody microarray of LPS-treated RAW 264.7 cells: NF-κB p105/p50; assay type: cell-based; conditions: 200 μM peptide 1 hour then LPS 1 μg/mL 30 minutes, compared to cells treated with only LPS
Procedure: as §1, §2

[4] = tested on: TNBS-induced colitis rats; test: TNBS colitis-induced animal model; assay type: in vivo
Procedure: In order to determine whether or not the peptide according to the present invention has the effect of treating inflammatory colitis in vivo, the effect of treating colitis in a colitis-induced animal model was detected. Before induction of colitis, rats were allowed to drink water freely, although food was not supplied thereto for 24 hours. The rats were lightly anesthetized with ether. A rubber cannula (o.d., 2 mm) was inserted into the colon, the end of which was about 8 cm away from the anus and was located near the splenic flexure. 2,4,6-trinitro benzene sulfonic acid (TNBS; Sigma Chemical Co, St Louis, Missouri, USA) dissolved in a 50% (v/v) ethanolic aqueous solution was injected into the colon through the rubber cannula (15 mg/0.3 mL/rat). 72 hours after induction of colitis, the peptide of SEQ ID NO: 1 (30 mg/kg) was intraperitoneally injected once a day, and after administration for 7 days, the rats were sacrificed. The weight of the rats was measured at 9 AM every day, and the length of the colon was measured from the cecum to the anus using a vernier caliper (Mitutoyo, Japan) after rat sacrifice.
The extracted large intestine was frozen and stored at −70° ° C., the mucous membrane tissue was collected from the muscle layer of the large intestine, the weight of the mucous membrane tissue was measured, and 10 mg of the mucous membrane tissue was lysed in a triple wash buffer (50 mM Tris-HCl, pH 8.0, 150 mM NaCl, 0.1% sodium deoxycholate and 1 mM phenylmethysulfonyl and homogenized. Then, p40, TNF-α, and IL-12 were assayed using an ELISA kit (R&D, Minneapolis, MN, USA).

[5] = tested on: IκBα; test: Phospho explorer antibody microarray of LPS-treated RAW 264.7 cells: IκBα; assay type: cell-based; conditions: 200 μM peptide 1 hour then LPS 1 μg/mL 30 minutes, compared to cells treated with only LPS
Procedure: as §1, §2

[6] = tested on: collagen-induced arthritis (CIA) rats; test: Collagen-induced arthritis animal model; assay type: in vivo, Wistar rats; conditions: for Hind paw swelling inhibition (%): 38th day
Text: In order to determine whether or not the peptide according to the present invention is effective in treating rheumatoid arthritis in vivo, the effect of treating arthritis thereof was detected in a collagen-induced arthritis animal model. For this purpose, female Wistar rats (105-135 g, n=67) were purchased from Harlan Co. Ltd. (Indianapolis, IN, USA). All rats were bred in a pathogen-free environment and sterilized standard rat feed (Harlan Co. Ltd, USA) and water were freely fed to the rats. Animal experiments were conducted with the approval of the Institutional Animal Care and Use Committee (IACUC) of Seoul National University. Collagen-induced arthritis was induced in a known manner (Nishikawa et al., Arthritis and rheumatism. 2003; 48:2670-81).
Specifically, 500 μg of bovine collagen type II was injected along with a mixture of 0.5 mL of 0.1 M acetic acid and 0.5 mL of Freund's incomplete adjuvant into rat muscle. On the 7th day, 0.5 mL of 0.1 M acetic acid and 0.5 mL of Freund's incomplete adjuvant were further inoculated along with 250 μg of bovine collagen type II to produce collagen-induced arthritis (CIA) rats. The rats were classified into a CIA-induced group (n=10), a CIA-induced group injected with a low concentration of the peptide of SEQ ID NO: 1 (LD AIP, 15 mg/kg, n=10), a CIA-induced group injected with a high concentration of the peptide of SEQ ID NO: 1 (HD AIP, 30 mg/kg, n=10), a CIA-induced group injected with etanercept (Enbrel) (10 mg/kg, n=10), and a normal group (n=6). From 28 days after the first collagen injection, the peptide of SEQ ID NO: 1 was injected subcutaneously into the back of the neck twice a week over 4 weeks. Etanercept was injected intraperitoneally three times a week over 4 weeks. Swelling of both hind paws was measured twice using a plethysmometer (LE7500 N, IWOO Scientific Corporation, KOREA) on day 22, 29, 31, 35, 38, 42, 45, 49, 52, and 56. The plethysmometer was used after calibration to a weight of 3 mL. The measured area was marked by drawing a line, and measurement was conducted adjacent to the ankle. Hind paw swelling increase (%) and hind paw swelling inhibition (%) were calculated using the following equations.
In order to observe the degree of bone damage in the hind paw, microcomputed tomography (micro-CT) was performed using a SkyScan 1172 (SkyScan, Aartselaar, Belgium). The total volume (TV; mm^3), bone volume (BV; mm^3) and bone volume fraction (BV/TV; %) were analyzed using CTAn software. On the 57th day, rats were sacrificed and subjected to histological analysis. Both hind paws and joints were collected, fixed in 10% buffered formalin, and demineralized in 30% citrate-buffered formic acid at 4° ° C. for 3 days. Paraffin blocks were produced, sliced into sections with a thickness of 4 μm and stained with hematoxylin and eosin (H&E), and then the pathological score was evaluated with an optical microscope. The joint inflammation index was measured based on the following criteria (Shiozawa et al., J Clin Invest. 1997; 99 (6):1210-1216). 0, normal synovium; 1, synovial membrane hypertrophy and cell infiltrates; 2, pannus and cartilage erosion; 3, major erosion of cartilage and subchondral bone; and 4, loss of joint integrity and ankylosis.
The rats were sacrificed and systemic blood was collected, and the concentrations of TNF-α and IL-6 in the blood were measured with an ELISA kit (R&D, Minneapolis, MN, USA).

SMILES: C[C@@H](O)[C@H](NC(=O)[C@H](CO)NC(=O)[C@H](CS)NC(=O)[C@H](CCCCN)NC(=O)CN)C(=O)N[C@@H](CCCNC(=N)N)C(=O)NCC(=O)N[C@@H](CCCNC(=N)N)C(=O)N[C@@H](CCCCN)C(=O)N[C@@H](CS)C(=O)N[C@@H](CS)C(=O)N[C@@H](CCCNC(=N)N)C(=O)N[C@@H](CCCNC(=N)N)C(=O)N[C@@H](CCCCN)C(=O)N[C@@H](CCCCN)C(=O)O [SEQ ID NO: 1]
- Phosphorylation ratio of NF-κB p100/p52 [1]: 0.451
- Phosphorylation ratio of HDAC5 [2]: 0.278
- Phosphorylation ratio of NF-κB p105/p50 [3]: 0.485
- Expression of IL-12 in large intestine mucous membrane tissue (ELISA) ([4]; 30 mg/kg intraperitoneally): decreased
- Expression of TNF-α in large intestine mucous membrane tissue (ELISA) ([4]; 30 mg/kg intraperitoneally): decreased
- Expression of p40 in large intestine mucous membrane tissue (ELISA) ([4]; 30 mg/kg intraperitoneally): decreased
- Visual observation of large intestine ([4]; 30 mg/kg intraperitoneally once a day, 7 days, 8th day): appeared similar to the normal group (CON), indicating that colitis was remarkably suppressed
- Phosphorylation ratio of IκBα [5]: 0.509
- Concentration of IL-6 in blood ([6]; ELISA, high concentration of peptide or etanercept, CIA-induced group 109 pg/ml): 35.2 pg/mL
- Concentration of TNF-α in blood ([6]; ELISA, high concentration of peptide or etanercept, CIA-induced group 128 pg/ml): 40.3 pg/mL
- Bone damage in hind paw (micro-CT) ([6]; FIG. 3A): bone tissue was preserved
- Microscopic observation of joint tissues (inflammation, H&E) ([6]; FIG. 4A): decrease in inflammation in a concentration-dependent manner
- Hind paw swelling inhibition (%) ([6]; high concentration (30 mg/kg)): 35%
- Bone surface area adjusted to BV (BS/BV) ([6]; high concentration, micro-CT): low
- Bone volume (BV) ([6]; high concentration, micro-CT): high
- Bone volume/tissue volume (BV/TV) ([6]; high concentration, micro-CT): high
- Trabecular thickness (Tb.Th) ([6]; high concentration, micro-CT): high
- Hind paw swelling inhibition (%) ([6]; low concentration (15 mg/kg)): 32%
- Hind paw swelling (%) ([6]; peptide 15 or 30 mg/kg subcutaneously twice a week, etanercept 10 mg/kg intraperitoneally three times a week, 4 weeks): decrease in hind paw swelling (%) in a concentration-dependent manner
- Hind paw swelling (%) ([6]; peptide at high concentration (30 mg/kg)): decrease in hind paw swelling (%) between 38 and 49 days (P<0.05)
- Inflammation index ([6]; score 0-4, CIA-induced group 3.3±0.67): 1.5±1.17
